According to patent US20110071201A1, “PHENOL-CONTAINING AZOLE COMPOSITIONS FOR THE PROTECTION OF INDUSTRIAL MATERIALS” (LANXESS DEUTSCHLAND GMBH, priority 2009, published 2011):

Assays:
[1] = test system: Coriolus versicolor; test: Agar hyphae growth inhibition test (MIC) with Kull synergism index; assay type: cell-based; settings: Trametes versicolor, 168 h; malt extract/peptone nutrient agar, 26° C., about 1 week; concentration at which radial hyphae growth was suppressed completely; read-out: MIC value against Coriolus versicolor
Method: Mycelium pieces were punched out of a colony of the wood-destroying organism Coriolus versicolor and incubated on a malt extract/peptone-containing nutrient agar at 26° C. The growth of the hyphae with and without active compound and 6,6′-di-tert-butyl-2,2′-methylenedi-p-cresol was compared. The minimum inhibitory concentration (MIC) stated was the concentration at which the radial hyphae growth was suppressed completely (incubation time: about 1 week, independently of the fungal growth of the comparative sample without active compound).
The synergism was determined by the method described by Kull et al. (F. C. Kull, P. C. Eismann, H. D. Sylvestrowicz, R. L. Mayer, Applied Microbiology 1961, 9, 538-541). The following relationships apply:
SI=1 means additivity SI>1 means antagonism SI<1 means synergism Qa=concentration of substance A which is the MIC Qb=concentration of substance B which is the MIC QA=concentration of substance A in the concentration of A/B at which microbial growth is suppressed QB=concentration of substance B in the concentration of A/B at which microbial growth is suppressed

[2] = Solubility in water and vapour pressure; assay type: physicochemical
[3] = test system: Lentinus tigrinus; test: Agar hyphae growth inhibition test (MIC) with Kull synergism index; assay type: cell-based; settings: 168 h, malt extract/peptone nutrient agar, 26° C., about 1 week, concentration at which radial hyphae growth was suppressed completely, read-out: MIC value against Lentinus tigrinus

solubility in water [2] | vapour pressure ([2]; at 50° C.) | Compound | MIC [1] | MIC [3]
< 1 ppm | 0.0001 hPa | Cc1cc(Cc2cc(C)cc(C(C)(C)C)c2O)c(O)c(C(C)(C)C)c1 [phenol I, 6,6′-di-tert-butyl-2,2′-methylenedi-p-cresol] | > 30 µg/mL | –
– | – | CC(C)(C)C(O)(CCc1ccc(Cl)cc1)Cn1cncn1 (centres unmarked) [tebuconazole, reference compound] | 1 µg/mL | 0.3 µg/mL
